Experiments:
Experiment in all cases: relative viability (nuclei count vs DMSO), 5 days (fraction); higher = more cells survive
XMD14-99 + Vorinostat = compound: CN1CCN(CC1)C2=CC(=C(C=C2)NC3=NC(=C(S3)C(=O)C4=C(C=CC=C4Cl)Cl)N)OC [XMD14-99] + O=C(CCCCCCC(=O)Nc1ccccc1)NO [Vorinostat] (partner 1 µM)
Summary of the method: (§1)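 Dosing by pin tool came one day after lung cancer cell lines were seeded in 1536-well plates, using either one drug or a fixed anchor-drug dose plus five library-drug doses (not always all listed) in √10 steps. After 5 days, nuclei were counted on 4× images. Relative viability is treated-well nuclei count divided by vehicle-well nuclei count, and values are medians of duplicate plates.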

XMD14-99 + Decitabine = compound: CN1CCN(CC1)C2=CC(=C(C=C2)NC3=NC(=C(S3)C(=O)C4=C(C=CC=C4Cl)Cl)N)OC [XMD14-99] + Nc1ncn([C@H]2C[C@H](O)[C@@H](CO)O2)c(=O)n1 [Decitabine] (partner 2 µM)
Summary of the method: as §1

XMD14-99 + Foretinib = compound: CN1CCN(CC1)C2=CC(=C(C=C2)NC3=NC(=C(S3)C(=O)C4=C(C=CC=C4Cl)Cl)N)OC [XMD14-99] + COc1cc2c(Oc3ccc(NC(=O)C4(C(=O)Nc5ccc(F)cc5)CC4)cc3F)ccnc2cc1OCCCN1CCOCC1 [Foretinib] (partner 0.25 µM)
Summary of the method: as §1

AZD1208 + Navitoclax = compound: N[C@@H]1CCCN(c2c(/C=C3\SC(=O)NC3=O)cccc2-c2ccccc2)C1 [AZD1208] + CC1(C)CCC(c2ccc(Cl)cc2)=C(CN2CCN(c3ccc(C(=O)NS(=O)(=O)c4ccc(N[C@H](CCN5CCOCC5)CSc5ccccc5)c(S(=O)(=O)C(F)(F)F)c4)cc3)CC2)C1 [Navitoclax] (partner 0.5 µM)
Summary of the method: as §1

| Cell Line | relative viability (XMD14-99 + Vorinostat; first compound 0.08 µM) | relative viability (XMD14-99 + Vorinostat; first compound 0.8 µM) | relative viability (XMD14-99 + Vorinostat; first compound 2.53 µM) | relative viability (XMD14-99 + Vorinostat; first compound 8 µM) | relative viability (XMD14-99 + Decitabine; first compound 0.08 µM) | relative viability (XMD14-99 + Decitabine; first compound 0.8 µM) | relative viability (XMD14-99 + Decitabine; first compound 2.53 µM) | relative viability (XMD14-99 + Decitabine; first compound 8 µM) | relative viability (XMD14-99 + Foretinib; first compound 0.08 µM) | relative viability (XMD14-99 + Foretinib; first compound 0.8 µM) | relative viability (XMD14-99 + Foretinib; first compound 2.53 µM) | relative viability (XMD14-99 + Foretinib; first compound 8 µM) | relative viability (AZD1208 + Navitoclax; first compound 0.08 µM) | relative viability (AZD1208 + Navitoclax; first compound 0.253 µM) | relative viability (AZD1208 + Navitoclax; first compound 0.8 µM) | relative viability (AZD1208 + Navitoclax; first compound 2.53 µM) | relative viability (AZD1208 + Navitoclax; first compound 8 µM) |
| --- | --- | --- | --- | --- | --- | --- | --- | --- | --- | --- | --- | --- | --- | --- | --- | --- | --- |
| NCI-H2170 | 0.784 | 0.832 | 0.741 | 0.609 | 0.49 | 0.423 | 0.444 | 0.395 | 0.978 | 1.02 | 1.02 | 0.921 | 0.505 | 0.664 | 0.418 | 0.521 | 0.251 |
| NCI-H2347 | 0.533 | 0.598 | 0.455 | 0.358 | 0.584 | 0.623 | 0.577 | 0.522 | 0.913 | 0.92 | 1 | 0.369 | 0.917 | 0.94 | 0.685 | 0.794 | 0.716 |
| NCI-H2405 | 1 | 1.07 | 1 | 0.514 | 0.704 | 0.749 | 0.628 | 0.648 | 1.04 | 1.03 | 1.02 | 0.838 | 0.78 | 0.792 | 0.84 | 0.791 | 0.789 |
| NCI-H3122 | 0.962 | 0.991 | 0.923 | 0.707 | 0.405 | 0.359 | 0.333 | 0.283 | 0.948 | 0.964 | 0.847 | 0.756 | 1.04 | 1 | 0.995 | 1.05 | 1.08 |
| PC-3 [JPC-3] | 1.04 | 0.843 | 0.756 | 0.539 | 0.75 | 0.88 | 0.797 | 0.774 | 1.06 | 0.957 | 0.858 | 0.762 | 0.859 | 0.953 | 0.792 | 0.809 | 0.828 |
| PC-14 | 0.636 | 0.628 | 0.438 | 0.285 | 0.26 | 0.238 | 0.201 | 0.142 | 0.964 | 0.969 | 0.864 | 0.852 | 1.02 | 0.988 | 1.01 | 1.02 | 1 |
| RERF-LC-KJ | 0.788 | 0.685 | 0.553 | 0.595 | 0.737 | 0.674 | 0.665 | 0.506 | 0.462 | 0.908 | 0.867 | 0.803 | 1.03 | 0.908 | 0.959 | 0.921 | 0.662 |
| SK-LU-1 | 0.735 | 0.74 | 0.813 | 0.479 | 0.606 | 0.707 | 0.666 | 0.412 | 0.818 | 0.803 | 0.758 | 0.477 | 0.56 | 0.874 | 0.883 | 0.774 | 0.813 |
| SK-MES-1 | 1.08 | 1.08 | 1.05 | 0.657 | 0.421 | 0.389 | 0.451 | 0.336 | 1.01 | 0.927 | 0.971 | 0.745 | 1.08 | 1.41 | 1.08 | 1.03 | 0.926 |
| SW 1573 | 0.833 | 0.765 | 0.756 | 0.631 | 0.451 | 0.545 | 0.475 | 0.334 | 0.814 | 0.992 | 0.861 | 0.824 | 0.896 | 0.948 | 0.765 | 0.995 | 0.717 |
| UMC-11 | 0.422 | 0.352 | 0.416 | 0.346 | 0.573 | 0.667 | 0.626 | 0.589 | 1.03 | 1.02 | 1.03 | 0.865 | 0.272 | 0.301 | 0.251 | 0.236 | 0.195 |

Source: the supplement of paper PMC10307832
